Data on 7 molecules can be found in patent US20080255240A1, “Sulfonamide Derivatives” (Novo Nordisk A/S, priority 2004, published 2008).

Broadly, the melting point is the temperature of the solid-liquid transition.

The structures appear in SMILES notation. Structures can show the parent of a compound that is named as a salt.

In turn, `Cc1cc(C(C)(C)C)c(O)c(S(=O)(=O)Nc2ccc(C#N)c(C(F)(F)F)c2)c1` yielded a melting point of 159 to 162 °C.
The figure for `CCC(C)c1cc(C(C)(C)C)c(O)c(S(=O)(=O)Nc2ccc([N+](=O)[O-])cc2Cl)c1` (stereo not shown) (as salt: Na) [Example 7, 5-sec-Butyl-3-tert-butyl-N-(2-chloro-4-nitro-phenyl)-2-hydroxy-benzenesulfonamide] is 106 to 108 °C.
In the case of `Cc1cc(C(C)(C)C)c(O)c(S(=O)(=O)Nc2ccc([N+](=O)[O-])cc2Cl)c1` [Example 1, 3-tert-Butyl-N-(2-chloro-4-nitro-phenyl)-2-hydroxy-5-methyl-benzenesulfonamide] it was 239 to 243 °C.
In the case of `Cc1cc(C(C)(C)C)c(O)c(S(=O)(=O)Nc2ccc(C#N)cc2Cl)c1` [Example 3, 3-tert-Butyl-N-(2-chloro-4-cyano-phenyl)-2-hydroxy-5-methyl-benzenesulfonamide] it was 101 to 105 °C; in that of `Cc1cc(C(C)(C)C)c(O)c(S(=O)(=O)Nc2ccc(I)cc2)c1` [Example 4, 3-tert-Butyl-2-hydroxy-N-(4-iodo-phenyl)-5-methyl-benzenesulfonamide], 184 to 185 °C.
Take `COc1ccc(NS(=O)(=O)c2cc(C)cc(C(C)(C)C)c2O)cc1` [Example 5, 3-tert-Butyl-2-hydroxy-N-(4-methoxy-phenyl)-5-methyl-benzenesulfonamide]: the melting point lay within 130 to 134 °C.
In the case of `CC(C)(C)c1cc(C(C)(C)C)c(O)c(S(=O)(=O)Nc2ccc([N+](=O)[O-])cc2Cl)c1` [Example 6, 3,5-Di-tert-butyl-N-(2-chloro-4-nitro-phenyl)-2-hydroxy-benzenesulfonamide] it was 158 to 161 °C.
